{
  "source": "patent US20250281507A1",
  "about": "“METHODS OF TREATING NEPHROTIC SYNDROME” (The Research Institute at Nationwide Children's Hospital, priority 2021, published 2025)",
  "tested_on": "children with NS",
  "assay": "Proteinuria (urine protein to creatinine ratio, UPCR) before and after addition of pioglitazone",
  "format": "in vivo, human",
  "from_the_text": "In the following clinical studies, the efficacy and safety of adding pioglitazone to reduce proteinuria in children with NS was examined. All children with NS identified worldwide to have been treated with pioglitazone were included, with no patients excluded. Each patient had pioglitazone added to their other NS medications at the discretion of their treating pediatric nephrologist. All patient records were reviewed in a de-identified manner, with prior ethics committee approval at each institution. Data were analyzed based on defined time periods before and after the addition of pioglitazone. Patients were defined as having responded to pioglitazone (i.e., Responders) if their urine protein to creatinine ratio (UPCR, mg/mg) decreased from the period 0-1 month pre-pioglitazone to the period 0-1 month post-pioglitazone. Glomerular filtration rate estimation (eGFR) in patients <18 years was calculated using the revised Schwartz equation. In patients >18 years, eGFR was calculated as the mean of the revised Schwartz and CKD-EPI creatinine equations. Quantitative data, such as patient age, duration of NS, pioglitazone dosage, and outcomes of UPCR, TIS, and serum albumin, were summarized as means (standard errors of mean), while categorical data such as renal survival status were summarized as frequency (percent). Due to a small sample size, Responders and Non-responders were compared using Wilcoxon Rank Sum tests on quantitative variables and Fisher's exact tests on categorical variables. For both Responders and Non-responders, pre-pioglitazone to post-pioglitazone initiation changes in UPCR, TIS, and serum albumin levels were analyzed using Wilcoxon Signed Rank tests. Numbers of hospitalizations pre-pioglitazone and post-pioglitazone initiation were analyzed and compared using Poisson distributions. Statistical significance was assessed at both the 0.05 and 0.10 levels. All analyses were conducted using SPSS software ver. 26 (IBM, Armonk, NY, USA).",
  "key": {"[1]": {"conditions": "Patient 1 (Responder), pre-PIO 8.5"}, "[2]": {"conditions": "Patient 1 (Responder), vs 0-1 mo pre-PIO"}, "[3]": {"conditions": "Patient 2 (Responder), pre-PIO 6"}, "[4]": {"conditions": "Patient 2 (Responder), vs 0-1 mo pre-PIO"}, "[5]": {"conditions": "Patient 3 (Responder), pre-PIO 11.2"}, "[6]": {"conditions": "Patient 3 (Responder), vs 0-1 mo pre-PIO"}, "[7]": {"conditions": "Patient 5 (Non-responder), pre-PIO 0.46"}, "[8]": {"conditions": "Patient 5 (Non-responder), vs 0-1 mo pre-PIO"}, "[9]": {"conditions": "Patient 6 (Responder), pre-PIO 2.16"}, "[10]": {"conditions": "Patient 6 (Responder), vs 0-1 mo pre-PIO"}, "[11]": {"conditions": "Patient 7 (Non-responder), pre-PIO 7.5"}, "[12]": {"conditions": "Patient 7 (Non-responder), vs 0-1 mo pre-PIO"}, "[13]": {"conditions": "Patient 8 (Responder), pre-PIO 4.66"}, "[14]": {"conditions": "Patient 8 (Responder), vs 0-1 mo pre-PIO"}, "[15]": {"conditions": "mean of 5 Responders, pre-PIO 6.50"}, "[16]": {"conditions": "mean of 5 Responders, vs 0-1 mo pre-PIO"}},
  "note": "Values joined by “and” are separate entries in the source; they are usually repeats but may differ in a detail not shown here. Equal entries are not always repeated.",
  "data": [
    {"smiles": "CCc1ccc(CCOc2ccc(CC3SC(=O)NC3=O)cc2)nc1", "note": "(centres unmarked) [pioglitazone]", "values": [
      {"measurement": "UPCR in Responders, range", "setting": "5-7 months post-pioglitazone", "result": "0.06 to 0.5", "unit": "mg/mg"},
      {"measurement": "Patients with prompt and significant reductions in proteinuria (Responders)", "setting": "Five of 8 pioglitazone-treated patients, UPCR decrease 0-1 mo pre- to 0-1 mo post-pioglitazone", "result": 63, "unit": "%"},
      {"measurement": "Post-PIO UPCR (0-1 mo; mg/mg)", "setting": "[1]", "result": 4, "unit": "mg/mg"},
      {"measurement": "Post-PIO UPCR (5-7 mo; mg/mg)", "setting": "[1]", "result": 0.2, "unit": "mg/mg"},
      {"measurement": "% UPCR Reduction (0-1 mo)", "setting": "[2]", "result": "53% and 52.9%"},
      {"measurement": "% UPCR Reduction (5-7 mo)", "setting": "[2]", "result": "98% and 97.6%"},
      {"measurement": "Post-PIO UPCR (0-1 mo; mg/mg)", "setting": "[3]", "result": 2, "unit": "mg/mg"},
      {"measurement": "Post-PIO UPCR (5-7 mo; mg/mg)", "setting": "[3]", "result": 0.12, "unit": "mg/mg"},
      {"measurement": "% UPCR Reduction (0-1 mo)", "setting": "[4]", "result": "67% and 66.7%"},
      {"measurement": "% UPCR Reduction (5-7 mo)", "setting": "[4]", "result": 98, "unit": "%"},
      {"measurement": "Post-PIO UPCR (0-1 mo; mg/mg)", "setting": "[5]", "result": 6.4, "unit": "mg/mg"},
      {"measurement": "Post-PIO UPCR (5-7 mo; mg/mg)", "setting": "[5]", "result": 0.5, "unit": "mg/mg"},
      {"measurement": "% UPCR Reduction (0-1 mo)", "setting": "[6]", "result": "43% and 42.9%"},
      {"measurement": "% UPCR Reduction (5-7 mo)", "setting": "[6]", "result": "96% and 95% and 95.5%"},
      {"measurement": "UPCR increase", "setting": "Patient 4 (Non-responder), over the next 1 month", "result": 133, "unit": "%"},
      {"measurement": "Post-PIO UPCR (0-1 mo; mg/mg)", "setting": "Patient 4 (Non-responder), pre-PIO 28.8, urine obtained soon after IV albumin infusion", "result": "67.0 mg/mg and 67 mg/mg"},
      {"measurement": "% UPCR Reduction (0-1 mo)", "setting": "Patient 4 (Non-responder), vs 0-1 mo pre-PIO", "result": "−133", "unit": "%"},
      {"measurement": "UPCR increase", "setting": "Patient 5 (Non-responder), 1-month post-PIO", "result": 139, "unit": "%"},
      {"measurement": "increase in proteinuria (UPCR)", "setting": "Patient 5 (Non-responder), 5-7 months post-pioglitazone", "result": 24, "unit": "%"},
      {"measurement": "Post-PIO UPCR (0-1 mo; mg/mg)", "setting": "[7]", "result": 1.1, "unit": "mg/mg"},
      {"measurement": "Post-PIO UPCR (5-7 mo; mg/mg)", "setting": "[7]", "result": 0.57, "unit": "mg/mg"},
      {"measurement": "% UPCR Reduction (0-1 mo)", "setting": "[8]", "result": "−139", "unit": "%"},
      {"measurement": "% UPCR Reduction (5-7 mo)", "setting": "[8]", "result": "−23.9", "unit": "%"},
      {"measurement": "Post-PIO UPCR (0-1 mo; mg/mg)", "setting": "[9]", "result": 1.09, "unit": "mg/mg"},
      {"measurement": "Post-PIO UPCR (5-7 mo; mg/mg)", "setting": "[9]", "result": 0.11, "unit": "mg/mg"},
      {"measurement": "% UPCR Reduction (0-1 mo)", "setting": "[10]", "result": "50% and 49.5%"},
      {"measurement": "% UPCR Reduction (5-7 mo)", "setting": "[10]", "result": "95% and 94.9%"},
      {"measurement": "increase in proteinuria (UPCR)", "setting": "Patient 7 (Non-responder), 5-7 months post-pioglitazone", "result": 77, "unit": "%"},
      {"measurement": "UPCR increase", "setting": "Patient 7 (Non-responder), over the next 1 month", "result": 13, "unit": "%"},
      {"measurement": "Post-PIO UPCR (0-1 mo; mg/mg)", "setting": "[11]", "result": 8.5, "unit": "mg/mg"},
      {"measurement": "Post-PIO UPCR (5-7 mo; mg/mg)", "setting": "[11]", "result": 13.3, "unit": "mg/mg"},
      {"measurement": "% UPCR Reduction (0-1 mo)", "setting": "[12]", "result": "−13.3", "unit": "%"},
      {"measurement": "% UPCR Reduction (5-7 mo)", "setting": "[12]", "result": 77.3, "unit": "%"},
      {"measurement": "Post-PIO UPCR (0-1 mo; mg/mg)", "setting": "[13]", "result": 0.08, "unit": "mg/mg"},
      {"measurement": "Post-PIO UPCR (5-7 mo; mg/mg)", "setting": "[13]", "result": 0.06, "unit": "mg/mg"},
      {"measurement": "% UPCR Reduction (0-1 mo)", "setting": "[14]", "result": "98% and 98.3%"},
      {"measurement": "% UPCR Reduction (5-7 mo)", "setting": "[14]", "result": "99% and 98.7%"},
      {"measurement": "Post-PIO UPCR (0-1 mo; mg/mg), Mean (SEM)", "setting": "[15]", "result": "2.7 mg/mg and 2.71 mg/mg"},
      {"measurement": "Post-PIO UPCR (5-7 mo; mg/mg), Mean (SEM)", "setting": "[15]", "result": "0.2 mg/mg and 0.20 mg/mg"},
      {"measurement": "% UPCR Reduction (0-1 mo), Mean (SEM)", "setting": "[16]", "result": "62% and 62.1%"},
      {"measurement": "% UPCR Reduction (5-7 mo), Mean (SEM)", "setting": "[16]", "result": 97, "unit": "%"},
      {"measurement": "Post-PIO UPCR (5-7 mo; mg/mg), Mean (SEM)", "setting": "mean of Non-responders (Patient 4 ESRD)", "result": 6.94, "unit": "mg/mg"},
      {"measurement": "% UPCR Reduction (5-7 mo), Mean (SEM)", "setting": "mean of Non-responders (Patient 4 NA)", "result": "−50.6", "unit": "%"},
      {"measurement": "Post-PIO UPCR (0-1 mo; mg/mg), Mean (SEM)", "setting": "mean of Non-responders, pre-PIO 12.3", "result": 25.5, "unit": "mg/mg"},
      {"measurement": "% UPCR Reduction (0-1 mo), Mean (SEM)", "setting": "mean of Non-responders, vs 0-1 mo pre-PIO", "result": "−95.0", "unit": "%"},
      {"measurement": "UPCR reduction in Responders, range", "setting": "within the first month of pioglitazone treatment", "result": "43-98%"},
      {"measurement": "UPCR in Responders, range", "setting": "within the first month of pioglitazone treatment, pre range 2.2-11.2", "result": "0.1 to 6.4", "unit": "mg/mg"}
    ]}
  ]
}
